Test systems include HCT-15; HL-60; A549; SNB-19; OVCAR-5; CCRF-CEM; IGROV-1; UO-31; HT-29; U-251; SK-OV-3; UACC-62; MOLT-4; SF-539; CAKI-1; Malme-3M; NCI-H226; SNB-75; SK-MEL-5; HCT-116.
Common to all, as to test: growth of human tumour cells (NCI), 48 h

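These data come from cells grown in 96-well plates and exposed to compound for 48 hours at five concentrations. The concentration for 50% growth inhibition is given as GI50.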 Activity calls are given as the source filed them. Cut-off read from the data, not from the text of the source: active = GI50 up to about 1.1 µM and inactive = higher.

With `O=C(O)CCCNS(=O)(=O)c1ccc2ccccc2c1`, the GI50 with HCT-15 was > 100 µM; with HL-60 it was > 100 µM (inactive); with A549 it was > 100 µM (inactive); with SNB-19, > 100 µM (inactive); in the assay with OVCAR-5, > 100 µM (inactive); in the assay on CCRF-CEM, > 100 µM (inactive). Moreover, the GI50 in the assay on IGROV-1, in the assay on UO-31, with HT-29, in the assay with U-251, in the assay on SK-OV-3 and in the assay with UACC-62 was > 100 µM (inactive) in each case. In addition, the GI50 in the assay on MOLT-4, in the assay with SF-539, with CAKI-1, in the assay with Malme-3M, in the assay on NCI-H226 and in the assay on SNB-75 was > 100 µM (inactive) each time. Besides, the GI50 with SK-MEL-5 is > 100 µM (inactive).
For `CN(CCO)/N=N/c1n[nH]cc1C(N)=O`, the GI50 with HCT-15 is > 100 µM; with HL-60, > 100 µM (inactive); in the assay on A549 it was > 100 µM (inactive); in the assay with SNB-19, > 100 µM (inactive); in the assay with OVCAR-5 it was > 100 µM (inactive); in the assay on CCRF-CEM it was > 100 µM (inactive). Further, the GI50 in the assay with IGROV-1, in the assay on UO-31, with HT-29, with U-251, in the assay with SK-OV-3 and in the assay on UACC-62 was > 100 µM (inactive) in each case. Also, the GI50 in the assay with MOLT-4, in the assay with SF-539, in the assay with CAKI-1, in the assay on Malme-3M, in the assay with NCI-H226 and in the assay on HCT-116 was > 100 µM (inactive) throughout. Besides, the GI50 in the assay on SNB-75 and in the assay on SK-MEL-5 was > 100 µM (inactive) in each case.
For `Cc1cc(C)c2c(=N)c3ccccc3n(CCCCCCn3c4ccccc4c(=N)c4c(C)cc(C)nc43)c2n1`, the GI50 in the assay with HCT-15 is 0.181 µM; in the assay with HL-60, 0.28 µM (active); in the assay on A549, 1.63 µM (inactive); with SNB-19 it was 0.767 µM (active); in the assay with OVCAR-5, 1.84 µM (inactive); with CCRF-CEM it was 0.266 µM (active). The GI50 is 1.44 µM (inactive) with IGROV-1; 1.56 µM (inactive) in the assay with UO-31; 0.462 µM (active) in the assay with HT-29; 0.252 µM (active) in the assay on U-251; 1.62 µM (inactive) in the assay on SK-OV-3; 1.77 µM (inactive) with UACC-62. For the same molecule, the GI50 in the assay with MOLT-4 was 0.627 µM (active); in the assay with SF-539 it was 1.54 µM (inactive); in the assay with CAKI-1, 1.45 µM (inactive); in the assay with Malme-3M, 1.63 µM (inactive); with NCI-H226, 1.66 µM (inactive); with HCT-116 it was 0.18 µM (active). The GI50 was 0.628 µM (active) in the assay with SNB-75 and 1.84 µM (inactive) with SK-MEL-5.
As for `COc1ccc(CC(N)=O)cc1OC`, the GI50 in the assay with HCT-15 was 1090 µM; with HL-60, > 1150 µM (inactive); in the assay with A549, > 1250 µM (inactive); with SNB-19, > 1250 µM (inactive); in the assay on OVCAR-5, > 853 µM (inactive); in the assay with CCRF-CEM, > 1250 µM (inactive). For the same molecule, the GI50 in the assay on IGROV-1, with UO-31, with HT-29, with U-251, with SK-OV-3 and in the assay on UACC-62 was > 1250 µM (inactive) in each case. Also, the GI50 was > 1250 µM (inactive) in the assay with MOLT-4; > 1250 µM (inactive) in the assay with SF-539; 564 µM (inactive) in the assay on CAKI-1; > 1250 µM (inactive) in the assay on Malme-3M; > 1250 µM (inactive) with NCI-H226; > 1250 µM (inactive) in the assay on HCT-116. For the same molecule, the results for the GI50 in the assay with SNB-75 and with SK-MEL-5 were 769 µM (inactive) and > 1250 µM (inactive), respectively.
Turning to `COc1cc([C@@H]2c3cc4c(cc3[C@@H](OC3OC5COC(C)OC5C(O)C3O)[C@H]3COC(=O)[C@H]23)OCO4)cc(OC)c1O` (stereo partly drawn), the GI50 with HCT-15 is 17.6 µM; in the assay on HL-60 it was 0.807 µM (active); in the assay with A549, 3.61 µM (inactive); with OVCAR-5 it was 25.2 µM (inactive); in the assay with CCRF-CEM it was 1.4 µM (inactive); with IGROV-1, 31.4 µM (inactive). Besides, the GI50 with UO-31 was 42.3 µM (inactive); with HT-29, 28.8 µM (inactive); in the assay with U-251 it was 3.3 µM (inactive); with SK-OV-3 it was 17.2 µM (inactive); with UACC-62, 6.11 µM (inactive); with MOLT-4 it was 0.547 µM (active). Also, the GI50 in the assay on SF-539 was 3.27 µM (inactive); with CAKI-1 it was 4.2 µM (inactive); in the assay with Malme-3M, 9.44 µM (inactive); in the assay on NCI-H226, 3.44 µM (inactive); with HCT-116, 13.6 µM (inactive); in the assay on SNB-75, 12.1 µM (inactive). Further, the GI50 in the assay on SK-MEL-5 is 5.48 µM (inactive).
In the case of `O=C(CC1OC(O)C(Cl)=C1Cl)c1cccnc1` (stereo not drawn), the GI50 in the assay with HCT-15 was > 41.1 µM; in the assay on HL-60 it was > 100 µM (inactive); with A549 it was > 100 µM (inactive); with SNB-19 it was > 100 µM (inactive); in the assay on OVCAR-5 it was > 100 µM (inactive); with CCRF-CEM, > 100 µM (inactive). Also, the GI50 with IGROV-1 is > 100 µM (inactive); in the assay with UO-31, > 100 µM (inactive); in the assay on HT-29, > 42.3 µM (inactive); with U-251, > 41.2 µM (inactive); in the assay with SK-OV-3, > 100 µM (inactive); in the assay with UACC-62, > 100 µM (inactive). Besides, the GI50 in the assay with MOLT-4 was > 100 µM (inactive); in the assay with SF-539, 0.359 µM (active); in the assay with CAKI-1 it was > 100 µM (inactive); in the assay with Malme-3M it was > 100 µM (inactive); in the assay on NCI-H226, > 100 µM (inactive); in the assay on HCT-116, > 39.8 µM (inactive). For the same molecule, the GI50 in the assay on SNB-75 is > 100 µM (inactive); in the assay on SK-MEL-5, 83.8 µM (inactive).

For the origin of these results see ChEMBL document CHEMBL1201862, “PubChem BioAssay data set” (2004).
